Structures can show the parent of a compound that is named as a salt.
Each compound was assayed against T1, human EP1 receptor (Homo sapiens, UniProt P34995) (assay: human EP1 calcium mobilisation assay). Conditions: human EP1, PGE2-induced calcium mobilisation in CHO-K1 cells; free bases or sodium salts; averages of a number of experiments; read-out: functional pKi value (converted).
T1 construct: expressed in transfected cells; host or cells: CHO-K1
T1 sequence (P34995 1-402): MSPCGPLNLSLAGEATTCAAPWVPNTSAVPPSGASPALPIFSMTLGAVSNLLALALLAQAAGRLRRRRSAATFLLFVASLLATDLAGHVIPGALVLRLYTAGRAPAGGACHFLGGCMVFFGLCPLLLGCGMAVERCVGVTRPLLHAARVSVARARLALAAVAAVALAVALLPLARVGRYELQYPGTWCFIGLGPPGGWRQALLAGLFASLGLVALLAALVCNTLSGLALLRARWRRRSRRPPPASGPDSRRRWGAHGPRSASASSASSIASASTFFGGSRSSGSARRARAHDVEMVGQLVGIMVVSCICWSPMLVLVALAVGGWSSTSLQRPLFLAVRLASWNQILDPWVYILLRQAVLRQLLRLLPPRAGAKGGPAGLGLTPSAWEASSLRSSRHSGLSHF
Format: cell-based
Experimental: Briefly, the antagonist properties of compounds are assessed by their ability to inhibit the mobilisation of intracellular calcium ([Ca^2+]i) in response to activation of EP1 or EP3 receptors by the natural agonist hormone prostaglandin E2 (PGE2). Increasing concentrations of antagonist reduce the amount of calcium that a given concentration of PGE2 can mobilise. The net effect is to displace the PGE2 concentration-effect curve to higher concentrations of PGE2. The amount of calcium produced is assessed using a calcium-sensitive fluorescent dye such as Fluo-4, AM and a suitable instrument such as a Fluorimetric Imaging Plate Reader (FLIPR). Increasing amounts of [Ca^2+]i produced by receptor activation increase the amount of fluorescence produced by the dye and give rise to an increasing signal. The signal may be detected using the FLIPR instrument and the data generated may be analysed with suitable curve-fitting software.
The human EP1 or EP3 calcium mobilisation assay (hereafter referred to as ‘the calcium assay’) utilises Chinese hamster ovary-K1(CHO-K1) cells into which a stable (pCIN; BioTechniques 20 (1996): 102-110) vector containing either EP1 or EP3 cDNA has previously been transfected. Cells are cultured in suitable flasks containing culture medium such as DMEM:F-12 supplemented with 10% v/v foetal calf serum, 2 mM L-glutamine, 0.25 mg/ml geneticin, 100 μM flurbiprofen and 10 μg/ml puromycin.
For assay, cells are harvested using a proprietary reagent that dislodges cells such as Versene. Cells are re-suspended in a suitable quantity of fresh culture media for introduction into a 384-well plate. Following incubation for 24 hours at 37° C. the culture media is replaced with a medium containing Fluo-4 and the detergent pluronic acid, and a further incubation takes place. Concentrations of compounds are then added to the plate in order to construct concentration-effect curves. This may be performed on the FLIPR in order to assess the agonist properties of the compounds. Concentrations of PGE2 are then added to the plate in order to assess the antagonist properties of the compounds.
The data so generated may be analysed by means of a computerised curve-fitting routine. The concentration of compound that elicits a half-maximal inhibition of the calcium mobilisation induced by PGE2 (pIC50) may then be estimated.

Ki [nM]	SMILES
< 1000	CC(C)COc1ccc(Cl)cc1Cc1ccc(-c2nc3cc(CN4CCCC4)cnc3[nH]2)o1 [Example 165, 2-[5-({5-Chloro-2-[(2-methylpropyl)oxy]-phenyl}methyl)-2-furanyl]-6-(1-pyrrolidinylmethyl)-1H-imidazo[4,5-b]pyridinedihydrochloride]
< 1000	O=C(Nc1c(F)cccc1F)c1ccc(Cc2cc(Cl)ccc2OCc2cccc(F)c2F)o1 [Example 87, 5-[(5-Chloro-2-{[(2,3-difluorophenyl)methyl]oxy}-phenyl)methyl]-N-(2,6-difluorophenyl)-2-furancarboxamide]
< 1000	CC(C)COc1ccc(Cl)cc1Cc1ccc(C(=O)NCc2ccc(C(F)(F)F)cc2)o1 [Example 38, 5-({5-Chloro-2-[(2-methylpropyl)oxy]phenyl}methyl)-N-{[4-(trifluoromethyl)phenyl]methyl}-2-furancarboxamide]
< 1000	CCN(CC)Cc1ccc2nc(-c3ccc(Cc4cc(Cl)ccc4OCC(C)C)o3)[nH]c2c1 [Example 150, N-({2-[5-({5-Chloro-2-[(2-methylpropyl)oxy]-phenyl}methyl)-2-furanyl]-1H-benzimidazol-5-yl}methyl)-N-ethylethanaminedihydrochloride]
< 1000	O=C(Nc1ccccc1)c1ccc(Cc2cc(Cl)ccc2OCc2ccccc2)o1 [Example 70, 5-({5-Chloro-2-[(phenylmethyl)oxy]-phenyl}methyl)-N-phenyl-2-furancarboxamide]
< 1000	CC(C)COc1ccc(Cl)cc1Cc1ccc(-c2nc3cc(Cl)ccc3[nH]2)o1 [Example 123, 5-Chloro-2-[5-({5-chloro-2-[(2-methylpropyl)oxy]phenyl}-methyl)-2-furanyl]-1H-benzimidazole]
< 1000	CC(C)COc1ccc(Cl)cc1Cc1ccc(-c2nc3cc4cn[nH]c4cc3[nH]2)o1 [Example 119, 6-[5-({5-Chloro-2-[(2-methylpropyl)oxy]phenyl}-methyl)-2-furanyl]-1,5-dihydroimidazo[4,5-f]indazole]
< 1000	CC(C)CCOc1ccc(Cl)cc1Cc1ccc(C(=O)O)o1 [Example 11, Sodium 5-({5-chloro-2-[(3-methylbutyl)oxy]phenyl}methyl)-2-furancarboxylate]
< 1000	Cc1cc(C(=O)NCc2ccccc2)oc1Cc1cc(Cl)ccc1OCc1ccccc1 [Example 31, 5-({5-Chloro-2-[(phenylmethyl)oxy]phenyl}methyl)-4-methyl-N-(phenylmethyl)-2-furancarboxamide]
< 1000	CC(C)COc1ccc(Cl)cc1Cc1ccc(-c2nc3cc(C(F)(F)F)ccc3[nH]2)o1 [Example 126, 2-[5-({5-Chloro-2-[(2-methylpropyl)oxy]phenyl}-methyl)-2-furanyl]-5-(trifluoromethyl)-1H-benzimidazole]
< 1000	Cc1ccccc1NC(=O)c1ccc(Cc2cc(Cl)ccc2OCc2ccccc2)o1 [Example 73, 5-({5-Chloro-2-[(phenylmethyl)oxy]-phenyl}methyl)-N-(2-methylphenyl)-2-furancarboxamide]
< 1000	Clc1ccc(OCc2ccccc2)c(Cc2ccc(-c3nc4cscc4[nH]3)o2)c1 [Example 101, 2-[5-({5-Chloro-2-[(phenylmethyl)oxy]phenyl}methyl)-2-furanyl]-1H-thieno[3,4-d]imidazole]
< 1000	CC(C)(C)CNC(=O)c1ccc(Cc2cc(Cl)ccc2OCc2ccccc2)o1 [Example 52, 5-({5-Chloro-2-[(phenylmethyl)oxy]phenyl}methyl)-N-(2,2-dimethylpropyl)-2-furancarboxamide]
< 1000	Clc1ccc(OCc2ccccc2)c(Cc2ccc(-c3nc4ccc(CN5CCOCC5)cc4[nH]3)o2)c1 [Example 139, 2-[5-({5-Chloro-2-[(phenylmethyl)oxy]-phenyl}methyl)-2-furanyl]-5-(4-morpholinylmethyl)-1H-benzimidazoledihydrochloride]
≤ 10	O=C(O)Cc1ccc(Cc2cc(Cl)ccc2OCc2ccccc2)o1 [Example 16, Sodium [5-({5-chloro-2-[(phenylmethyl)oxy]phenyl}methyl)-2-furanyl]acetate]
